Experimental data: patent US11413278B2, “Compounds and methods for promoting stress resistance” (priority 2015, dated 2022)
Like-named read-outs stand apart in the source and are kept apart here.

Experiments:
[1] = Summary score for characterization of 38 core set hits
Method in brief: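 Composite score across characterizations of hits from an H2O2-resistance screen. Multiplex resistance, FOXO3/NRF2 activation and mTOR down-regulation each earn 2 points. C. elegans lifespan extension over 4–6 trials scores 0–2, and DNA damage or toxicity in human cells subtracts a point.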

[2] = system: human dermal fibroblast (HDF) primary cells; assay: H2O2-resistance in primary human dermal fibroblasts; assay type: cell-based; conditions: for fold induction at 10 µM: Homo sapiens
WI-38 cells [3] = assay: MMS resistance assay; assay type: cell-based, human; conditions: for fold induction at 10 µM: Homo sapiens, 12 h, normalized ATP measurement
Method in brief: (§1)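 WI-38 cells were given compounds at five final concentrations (0.25–20 μM) in triplicate, followed by cadmium or MMS for 12 h. For MMS, medium was switched from OptiMEM+10% FBS to serum-free DMEM+2% BSA when compounds were added, 24 h before stressor. Two independent assays were run, analysed by global variance t-test.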

WI-38 cells [4] = assay: CdCl2 (cadmium) resistance assay; assay type: cell-based, human; conditions: for fold induction at 10 µM: Homo sapiens, 12 h, normalized ATP measurement
Method in brief: as §1

WI-38 cells [5] = system: WI-38 cells
Protocol: WI-38 cells were seeded on 384-well plates for 24 hrs and then incubated with small molecules for 24 hrs. […] Images were collected on an INCell Analyzer 2000 (GE) and analyzed with the Developer software.

[6] = system: PC12 cells expressing poly(Q)103-Htt-EGFP; assay: Poly(Q) toxicity & viability analysis (cellular model of Huntington's disease); assay type: cell-based, rat
Method in brief: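 PC12 cells stably carrying inducible poly(Q)103-Htt-EGFP, whose induced expression causes aggregation and toxicity. Viability read 48 hrs later as ATP content by CellTiter-Glo.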

WI-38 cells [7] = assay: Propidium iodide (PI) cell-death imaging upon H2O2 stress; assay type: cell-based, human; conditions: for cytotoxicity at 10 µM: Homo sapiens, WI-38
human PARP1 = molecular target: T1, human PARP1 (Homo sapiens, UniProt P09874); assay: PARP inhibitor assay (HT Fluorescent Homogeneous PARP Inhibition Assay Kit); assay type: biochemical; conditions: score
T1 construct: purchased Trevigen
Method in brief: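 Human PARP1 with NAD and activated DNA, compounds at 10 μM final, 30 min at room temperature in dark. Resazurin/diaphorase cycling mix then added for 1 hr in dark before stop buffer; fluorescent homogeneous kit read-out.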

[8] = score in summary of 38 core set hits

T1 sequence (P09874 whole entry): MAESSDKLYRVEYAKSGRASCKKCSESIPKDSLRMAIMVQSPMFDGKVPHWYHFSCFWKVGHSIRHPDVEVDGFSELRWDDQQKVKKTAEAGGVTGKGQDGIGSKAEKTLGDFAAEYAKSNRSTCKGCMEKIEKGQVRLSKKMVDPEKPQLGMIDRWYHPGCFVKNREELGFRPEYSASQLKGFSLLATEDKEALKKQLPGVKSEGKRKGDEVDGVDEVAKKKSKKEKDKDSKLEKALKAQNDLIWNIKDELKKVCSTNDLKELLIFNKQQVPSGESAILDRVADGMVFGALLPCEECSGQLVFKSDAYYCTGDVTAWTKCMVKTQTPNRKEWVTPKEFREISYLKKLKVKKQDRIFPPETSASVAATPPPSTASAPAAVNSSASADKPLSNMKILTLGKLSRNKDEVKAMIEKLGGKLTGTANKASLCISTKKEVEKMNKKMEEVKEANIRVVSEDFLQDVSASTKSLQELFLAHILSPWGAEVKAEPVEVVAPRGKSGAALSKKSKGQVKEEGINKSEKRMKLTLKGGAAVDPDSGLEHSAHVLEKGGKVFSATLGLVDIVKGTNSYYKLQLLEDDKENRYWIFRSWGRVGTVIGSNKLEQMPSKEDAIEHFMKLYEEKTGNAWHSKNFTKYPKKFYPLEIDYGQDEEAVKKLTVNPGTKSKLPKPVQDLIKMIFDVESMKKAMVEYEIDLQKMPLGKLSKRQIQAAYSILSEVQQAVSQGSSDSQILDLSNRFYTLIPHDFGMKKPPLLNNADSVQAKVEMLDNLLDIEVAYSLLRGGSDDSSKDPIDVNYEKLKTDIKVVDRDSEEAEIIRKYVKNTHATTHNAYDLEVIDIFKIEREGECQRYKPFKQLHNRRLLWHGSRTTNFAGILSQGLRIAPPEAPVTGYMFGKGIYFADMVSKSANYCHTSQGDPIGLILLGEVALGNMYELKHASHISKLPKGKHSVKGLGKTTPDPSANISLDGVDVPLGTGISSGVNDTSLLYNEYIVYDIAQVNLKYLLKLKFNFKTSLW

SMILES: O=C(NCc1cccnc1)/C(=C\c1ccc(Br)cc1)S(=O)(=O)c1ccccc1 [Gr-7B]
- D = Triple resistant ([1]; 2-point score, multiplex resistance (cadmium, MMS, H2O2)): 0
- S = Sum of Negative scores ([1]; human): 1
- C = H2O2- & Cd-resistant ([1]; score, resistance to both H2O2 and cadmium): 0
- fold induction at 10 µM ([2]; Experiment 1, HDF cells, read-out: Experiment 1, HDF cells (under H2O2 stress treatment), at 10 uM (fold change)): 3.71
- fold induction at 10 µM ([2]; Experiment 2, HDF cells, read-out: Experiment 2, HDF cells (under H2O2 stress treatment), at 10 uM (fold change)): 3.35
- Assay 6: H2O2-resistant, at 10 uM, human dermal fibroblast (HDF) primary cells ([2]; YES/NO): YES
- fold induction at 10 µM (WI-38 cells [3]; Exp. 1, WI-38 cells, read-out: Exp. 1, under MMS stress treatment, at 10 uM (fold change)): 0.39
- fold induction at 10 µM (WI-38 cells [3]; Exp. 2, WI-38 cells, read-out: Exp. 2, under MMS stress treatment, at 10 uM (fold change)): 1.45
- B = MMS resistant (WI-38 cells [3]; [8]): 0
- B = MMS resistant (WI-38 cells [3]; summary score): 0
- D = Triple resistant (WI-38 cells [3]; summary score): 0
- fold induction at 10 µM (WI-38 cells [4]; Exp. 1, WI-38 cells, read-out: Exp. 1, under Cd2Cl2 stress treatment, at 10 uM (fold change)): 0.12
- fold induction at 10 µM (WI-38 cells [4]; Exp. 2, WI-38 cells, read-out: Exp. 2, under Cd2Cl2 stress treatment, at 10 uM (fold change)): 0.26
- Assay 4: H2O2- & Cd-resistant (WI-38 cells [4]; YES/NO): YES
- Assay 2: Cadmium-resistant (WI-38 cells [4]; YES/NO, * indicates partial): YES
- A = Cadmium resistant (WI-38 cells [4]; [8]): 0
- A = Cadmium resistant (WI-38 cells [4]; summary score): 1
- C = H2O2- & Cd-resistant (WI-38 cells [4]; summary score): 1
- PI cell-death imaging without H2O2 (indicating potential toxicity) (WI-38 cells [5]; Assay 8(k), without H2O2, at 10 uM): YES
- PI-positive dead cells under normal conditions (WI-38 cells [5]; WI-38, no H2O2, control 0.4±0.2%): 3.6%±0.7%
- M = Huntington's poly-Q toxicity attenuation ([6]; score): 0
- K = Huntington's poly-Q toxicity attenuation ([6]; summary score): 0
- Assay 7: H2O2-resistant, at 10 uM, validated by propidium iodide (PI) cell-death imaging (WI-38 cells [7]; 10 uM, w/H2O2, 3 hrs/4 hrs/5 hrs, YES/NO): YES
- cytotoxicity at 10 µM (WI-38 cells [7]; H2O2 3 hrs, 10 uM, n = 6, negative control 5.44% ± 0.79%, read-out: Percentage of propidium iodide-positive dead cells (under H2O2 stress treatment), 3 hrs): 5.88%
- cytotoxicity at 10 µM (WI-38 cells [7]; H2O2 4 hrs, 10 uM, n = 6, negative control 16.81% ± 1.42%, read-out: Percentage of propidium iodide-positive dead cells (under H2O2 stress treatment), 4 hrs): 6.44%
- cytotoxicity at 10 µM (WI-38 cells [7]; pre-treatment at 10 uM, 3.5 hours of H2O2, DMSO control 27.4% ± 6.5%, */**/*** = reduced by one/two/three standard deviations, read-out: Percentage of propidium iodide-positive dead cells (under H2O2 stress treatment), at 10 uM): 4.7%
- L = PARP inhibition (human PARP1): 0
